Test results: publication PMC8603191, “Fragment-based design of selective GPCR ligands guided by free energy simulations” (Chemical communications (Cambridge, England), 2021)
Values joined by “and” are separate entries in the source; they are usually repeats but may differ in a detail not shown here. Equal entries are not always repeated.

Tests used:
human A1AR [1] = target: T1, human A1AR (Homo sapiens, UniProt P30542); experiment: Radioligand binding assay, displacement of [3H]DPCPX; conditions: for ligand efficiency (LE, binding free energy per heavy atom): A1AR; for Free energy of binding (ΔG) A1AR: calculated from experimental binding affinities
T1 construct: expressed in transfected cells; host or cells: HEK293 (membrane preparations)
T1 sequence (P30542 1-326): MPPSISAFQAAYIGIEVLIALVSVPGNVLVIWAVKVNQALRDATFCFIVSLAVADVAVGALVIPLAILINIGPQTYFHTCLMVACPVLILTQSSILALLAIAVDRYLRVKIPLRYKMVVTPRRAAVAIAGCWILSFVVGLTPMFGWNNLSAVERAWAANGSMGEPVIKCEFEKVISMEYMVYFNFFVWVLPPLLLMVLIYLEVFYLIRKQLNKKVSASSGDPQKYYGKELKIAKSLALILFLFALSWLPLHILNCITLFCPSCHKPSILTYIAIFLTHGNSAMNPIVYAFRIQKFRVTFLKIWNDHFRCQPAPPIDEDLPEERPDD
Method: (§1) Radioligand binding assays. HEK293 cells expressing the human A1- or A2AARs were cultured in DMEM supplemented with 10% fetal bovine serum, 100 Units/ml penicillin, 100 µg/ml streptomycin, and 2 µmol/ml glutamine. Cells were detached from plates by scraping into cold PBS and centrifuged at 250 g for 5 min. The pellets were resuspended in ice-cold Tris HCl buffer (50 mM, pH 7.4) and then homogenized. After homogenization and suspension, cells were centrifuged at 1000 g for 10 min, and the pellet was discarded.
(§2) The suspension was then re-centrifuged at 20,000 g for 60 min at 4 °C. The pellets were resuspended in buffer containing 3 Units/ml adenosine deaminase and incubated at 37°C for 30 min. The aliquots of membrane preparations were stored at −80°C until the binding experiments. For displacement binding assays, membrane preparations (20 µg proteins/tube) were incubated at 25°C for 60 min with a final concentration of [3H]DPCPX (0.5 nM) and [3H]ZM241385 (1.0 nM) for A1- and A2AARs, respectively, in a mixture containing 50 µL of increasing concentrations of a test ligand in a total assay volume of 200 µL of 50 mM Tris HCl, pH 7.4, containing 10 mM MgCl2. Nonspecific binding was determined using 100 µM of XAC. The reaction was terminated by filtration with GF/B filters using a Brandel 24-channel harvester. Filters were placed in scintillation vials containing 5 ml of Hydrofluor scintillation buffer and counted using a PerkinElmer Tricarb 2810TR liquid scintillation counter. […]
(§3) Table S1. Binding affinities of compounds 1-10 based on displacement of [3H]DPCPX and [3H]ZM241385 at the A1AR and A2AAR, respectively.
(§4) Compound Substituent A1AR A2AAR index […]
(§5) a Ki values are expressed as means ± SEM from (2-4) independent experiments. b Free energy of binding (ΔG) calculated from experimental binding affinities (kcal/mol) / Number of heavy atoms (HA). The ligand efficiency (LE) = −ΔG/HA. c Values from Matricon et al.8
(§6) Table S3. Binding affinities of compounds 11-26 based on displacement of [3H]DPCPX and […]
(§7) a K values are expressed as means ± SEM from (2-4) independent experiments.
(§8) Free energy of binding (ΔG) calculated from experimental binding affinities (kcal/mol) / Number of heavy

human A1AR [2] = experiment: as above; conditions: A1AR versus A2AAR; for A1AR selectivity index: from Ki values; for selectivity for the A1AR: Fig. 1
Method: as §1, §2, §3, §4, §5, §6, §7, §8

human A2AAR = target: T2, human A2AAR (Homo sapiens, UniProt P29274); experiment: Radioligand binding assay, displacement of [3H]ZM241385; conditions: for Free energy of binding (ΔG) A2AAR: calculated from experimental binding affinities; for Ki: displacement of [3H]ZM241385, means ± SEM from 2-4 independent experiments; for ΔΔG Experimental A2AAR: based on Table S3
T2 construct: expressed in transfected cells; host or cells: HEK293 (membrane preparations)
Method: as §1, §2, §3, §4, §5, §6, §7, §8

[3] = compound 1 as reference, based on Table S1
[4] = displacement of [3H]DPCPX, means ± SEM from 2-4 independent experiments
[5] = radioligand binding, Fig. 1, Table S5
[6] = reference compound 5, based on Table S3
[7] = reference compound 9, based on Table S3

T2 sequence (P29274 whole entry): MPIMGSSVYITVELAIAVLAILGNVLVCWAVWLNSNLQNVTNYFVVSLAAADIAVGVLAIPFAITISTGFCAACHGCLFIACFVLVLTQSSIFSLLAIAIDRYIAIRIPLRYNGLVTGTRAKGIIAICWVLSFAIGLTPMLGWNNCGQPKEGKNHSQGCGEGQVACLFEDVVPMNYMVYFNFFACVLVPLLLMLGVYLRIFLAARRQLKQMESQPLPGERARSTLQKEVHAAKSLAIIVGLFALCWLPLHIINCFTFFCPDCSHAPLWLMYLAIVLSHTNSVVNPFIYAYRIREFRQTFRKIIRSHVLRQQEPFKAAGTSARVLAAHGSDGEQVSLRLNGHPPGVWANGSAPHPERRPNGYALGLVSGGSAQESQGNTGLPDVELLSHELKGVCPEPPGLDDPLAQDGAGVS

Compound | ligand efficiency (LE, binding free energy per heavy atom) (human A1AR [1]) | Free energy of binding (ΔG) A1AR (human A1AR [1]) | A1AR selectivity index (human A1AR [2]) | selectivity for the A1AR (human A1AR [2]) | Free energy of binding (ΔG) A2AAR (human A2AAR) | ΔΔG Experimental A1AR (human A1AR [1]; [3]) | Ki (human A1AR [1]; [4]) | Ki (human A2AAR) | improvement of A1AR affinity (human A1AR [1]; compared to compound 1) | Ki (human A1AR [1]; [5]) | A2AAR selectivity (human A2AAR; A2AAR versus A1AR) | ΔΔG Experimental A1AR (human A1AR [1]; [6]) | ΔΔG Experimental A2AAR (human A2AAR; reference compound 5) | ΔΔG Experimental A1AR (human A1AR [1]; [7]) | ΔΔG Experimental A2AAR (human A2AAR; reference compound 9)
CC(=O)Nc1nc2ccccc2s1 [Compound 1] | 0.52 kcal mol^−1 HA^−1 | -6.8 kcal/mol | 7.1 | 7 fold | -5.6 kcal/mol |  |  |  |  |  |  |  |  |  | 
CCC(=O)Nc1nc2ccccc2s1 [Compound 2] |  | -7.5 kcal/mol | 1.8 |  | -7.1 kcal/mol | –0.7 ± 0.3 kcal/mol | 3460 nM and 3500 nM | 6190 ± 3430 nM |  |  |  |  |  |  | 
CC(C)C(=O)Nc1nc2ccccc2s1 [Compound 3] |  | -8.0 kcal/mol | 1.6 |  | -7.7 kcal/mol | –1.2 ± 0.3 kcal/mol | 1420 nM and 1400 nM | 2260 ± 360 nM |  |  |  |  |  |  | 
O=C(Nc1nc2ccccc2s1)C1CC1 [Compound 4] |  | -7.7 kcal/mol | 1.4 |  | -7.5 kcal/mol | –0.9 ± 0.2 kcal/mol | 2350 nM and 2400 nM | 3270 ± 1140 nM |  |  |  |  |  |  | 
CC(C)(C)C(=O)Nc1nc2ccccc2s1 [Compound 5] | 0.56 kcal mol^−1 HA^−1 | -9.0 kcal/mol | 5.0 | not more selective for the A1AR compared to 1 | -8.0 kcal/mol | –2.2 ± 0.2 kcal/mol |  | 1430 ± 230 nM | 39 fold | 285 nM |  |  |  |  | 
CCC(CC)C(=O)Nc1nc2ccccc2s1 [Compound 6] |  | -8.2 kcal/mol | 2.8 |  | -7.6 kcal/mol | –1.4 ± 0.1 kcal/mol | 1040 nM and 1000 nM | 2920 ± 720 nM |  |  |  |  |  |  | 
O=C(Nc1nc2ccccc2s1)C1CCCCC1 [Compound 7] |  | -8.2 kcal/mol | 3.2 |  | -7.5 kcal/mol | –1.4 ± 0.2 kcal/mol | 1080 nM and 1100 nM | 3410 ± 950 nM |  |  |  |  |  |  | 
O=C(Nc1nc2ccccc2s1)C12CC3CC(CC1C3)C2 [Compound 8] |  | -8.7 kcal/mol | 4.0 |  | -7.8 kcal/mol | –1.9 ± 0.3 kcal/mol | 484 ± 173 nM | 1940 ± 220 nM |  |  |  |  |  |  | 
O=C(Nc1nc2ccccc2s1)C1CCCC1 [Compound 9] | 0.50 kcal mol^−1 HA^−1 | -8.5 kcal/mol | 2.6 |  | -7.9 kcal/mol | –1.7 ± 0.2 kcal/mol |  | 1610 ± 110 nM |  | 619 nM |  |  |  |  | 
O=C(Nc1nc2ccccc2s1)c1ccccc1 [Compound 10] |  | -8.5 kcal/mol | 0.6 |  | -8.8 kcal/mol | –1.7 ± 0.1 kcal/mol | 670 ± 80 nM | 386 ± 43 nM |  |  | 2 fold |  |  |  | 
Cc1cccc2sc(NC(=O)C(C)(C)C)nc12 [Compound 12] |  | -8.2 kcal/mol | 6.5 |  | -7.1 kcal/mol |  | 1040 nM and 1000 nM | 6750 ± 920 nM |  |  |  | 0.8 ± 0.1 kcal/mol | 0.9 ± 0.1 kcal/mol |  | 
CC1(C(=O)Nc2nc3ccccc3s2)CCCC1 [Compound 20] |  | -9.6 kcal/mol |  | 6 fold | -8.6 kcal/mol |  |  | 572 ± 64 nM |  | 95 nM |  |  |  | –1.1 ± 0.1 kcal/mol | –0.6 ± 0.1 kcal/mol
CC1(C(=O)Nc2nc3cc(Cl)ccc3s2)CCCC1 [Compound 21] |  | -10.5 kcal/mol | 11.0 |  | -9.1 kcal/mol |  | 23 ± 6 nM | 252 ± 89 nM |  |  |  |  |  | –2.0 ± 0.2 kcal/mol | –1.1 ± 0.2 kcal/mol
Cc1ccc2sc(NC(=O)C3(C)CCCC3)nc2c1 [Compound 23] |  | -9.9 kcal/mol | 9.8 |  | -8.6 kcal/mol |  | 57 ± 15 nM | 561 ± 109 nM |  |  |  |  |  | –1.4 ± 0.2 kcal/mol | –0.6 ± 0.1 kcal/mol
CCc1ccc2sc(NC(=O)C3(C)CCCC3)nc2c1 [Compound 24] |  | -9.6 kcal/mol | 22.4 |  | -7.8 kcal/mol |  | 96 ± 13 nM | 2150 ± 90 nM |  |  |  |  |  | –1.1 ± 0.1 kcal/mol | 0.2 ± 0.1 kcal/mol

Now from value to compound:

ligand efficiency (LE, binding free energy per heavy atom) (human A1AR [1]) | Free energy of binding (ΔG) A1AR (human A1AR [1]) | A1AR selectivity index (human A1AR [2]) | selectivity for the A1AR (human A1AR [2]) | Free energy of binding (ΔG) A2AAR (human A2AAR) | ΔΔG Experimental A1AR (human A1AR [1]; [3]) | Ki (human A1AR [1]; [4]) | Ki (human A2AAR) | improvement of A1AR affinity (human A1AR [1]; compared to compound 1) | Ki (human A1AR [1]; [5]) | A2AAR selectivity (human A2AAR; A2AAR versus A1AR) | ΔΔG Experimental A1AR (human A1AR [1]; [6]) | ΔΔG Experimental A2AAR (human A2AAR; reference compound 5) | ΔΔG Experimental A1AR (human A1AR [1]; [7]) | ΔΔG Experimental A2AAR (human A2AAR; reference compound 9) | Compound
 | > -5.5 kcal/mol | < 0.3 |  | -6.3 kcal/mol |  | > 100000 nM | 25800 ± 13200 nM |  |  |  | > 3.5 kcal/mol | 1.7 ± 0.6 kcal/mol |  |  | Cc1ccc2nc(NC(=O)C(C)(C)C)sc2c1 [Compound 11]
 | -9.8 kcal/mol | 19.1 |  | -8.0 kcal/mol |  | 76 ± 17 nM | 1450 ± 600 nM |  |  |  | –0.8 ± 0.2 kcal/mol | 0.0 ± 0.5 kcal/mol |  |  | Cc1ccc2sc(NC(=O)C(C)(C)C)nc2c1 [Compound 13]
 | -9.5 kcal/mol | 11.0 |  | -8.1 kcal/mol |  | 117 ± 11 nM | 1290 ± 280 nM |  |  |  | –0.5 ± 0.1 kcal/mol | –0.1 ± 0.2 kcal/mol |  |  | CC(C)(C)C(=O)Nc1nc2cc(Cl)ccc2s1 [Compound 14]
0.60 kcal mol^−1 HA^−1 | -10.2 kcal/mol | 18.7 | 19 fold | -8.4 kcal/mol |  |  | 746 ± 149 nM |  | 40 nM |  | –1.2 ± 0.2 kcal/mol | –0.4 ± 0.2 kcal/mol |  |  | CC(C)(C)C(=O)Nc1nc2cc(Br)ccc2s1 [Compound 15]
 | -9.4 kcal/mol | 23.6 |  | -7.5 kcal/mol |  | 143 ± 20 nM | 3380 ± 530 nM |  |  |  | –0.4 ± 0.1 kcal/mol | 0.5 ± 0.4 kcal/mol |  |  | CCc1ccc2sc(NC(=O)C(C)(C)C)nc2c1 [Compound 16]
 | -9.1 kcal/mol | 25.2 |  | -7.2 kcal/mol |  | 223 ± 22 nM | 5630 ± 740 nM |  |  |  | –0.2 ± 0.1 kcal/mol | 0.8 ± 0.1 kcal/mol |  |  | CC(C)(C)C(=O)Nc1nc2cc(C#N)ccc2s1 [Compound 17]
 | -9.4 kcal/mol | 10.5 |  | -8.0 kcal/mol |  | 152 ± 57 nM | 1600 ± 510 nM |  |  |  | –0.4 ± 0.3 kcal/mol | 0.1 ± 0.5 kcal/mol |  |  | COc1ccc2sc(NC(=O)C(C)(C)C)nc2c1 [Compound 18]
 | -9.4 kcal/mol | 1.5 |  | -9.2 kcal/mol |  | 133 ± 10 nM | 199 ± 70 nM |  |  |  | –0.5 ± 0.1 kcal/mol | –1.2 ± 0.2 kcal/mol |  |  | COc1cccc2sc(NC(=O)C(C)(C)C)nc12 [Compound 19]
